Measurements from PMC7732024 (Bioorganic & medicinal chemistry letters, 2012).

Key:
[1] = tested on: subgenomic HCV 1b replicon; assay: HCV RNA replication in Huh7 cells containing a subgenomic HCV 1b replicon; assay type: cell-based, HCV genotype 1b; conditions: for decrease of activity on introduction of torsion angle in the linker: one range stated for the group of compounds
HCV [2] = conditions: cited from earlier work
HCV [3] = conditions: clinical trials, at 24 h following a single dose of 10 mg; cited from earlier work

SMILES	decrease of activity on introduction of torsion angle in the linker ([1]; HCV 1b replicon)	anti-HCV activity (in words) ([1]; HCV 1b replicon)	also measured
COC(=O)N[C@H](C(=O)N1CCC[C@H]1c1ncc(-c2ccc(Oc3ccc(-c4cnc([C@@H]5CCCN5C(=O)[C@@H](NC(=O)OC)C(C)C)[nH]4)cc3)cc2)[nH]1)C(C)C [Compound 5b]	16- to 15,000 fold	–	–
COC(=O)N[C@H](C(=O)N1CCC[C@H]1c1ncc(-c2ccc(-c3cn(-c4ccc(-c5cnc([C@@H]6CCCN6C(=O)[C@@H](NC(=O)OC)C(C)C)[nH]5)cc4)nn3)cc2)[nH]1)C(C)C [Compound 17]	16- to 15,000 fold	–	–
COC(=O)N[C@H](C(=O)N1CCC[C@H]1c1ncc(-c2ccc(-c3ccc(-c4ccc(-c5cnc([C@@H]6CCCN6C(=O)[C@@H](NC(=O)OC)C(C)C)[nH]5)cc4)s3)cc2)[nH]1)C(C)C [Compound 11d]	16- to 15,000 fold	–	–
COC(=O)N[C@H](C(=O)N1CCC[C@H]1c1ncc(-c2ccc(-c3ccc(-c4ccc(-c5cnc([C@@H]6CCCN6C(=O)[C@@H](NC(=O)OC)C(C)C)[nH]5)cc4)cc3)cc2)[nH]1)C(C)C [Compound 11a]	–	low picomolar range	therapeutic index CC50/EC50 ([1]; HCV replicon assay): over four million
COC(=O)N[C@H](C(=O)N1CCC[C@H]1c1ncc(-c2ccc(-c3ccc(-c4ccc(-c5cnc([C@@H]6CCCN6C(=O)[C@@H](NC(=O)OC)C(C)C)[nH]5)cc4)nc3)cc2)[nH]1)C(C)C [Compound 11b]	–	low picomolar range	–
COC(=O)N[C@H](C(=O)N1CCC[C@H]1c1ncc(-c2ccc(-c3ccc(-c4ccc(-c5ccc(-c6cnc([C@@H]7CCCN7C(=O)[C@@H](NC(=O)OC)C(C)C)[nH]6)cc5)cc4)cc3)cc2)[nH]1)C(C)C [Compound 11e]	–	–	loss of activity at the EC50 level compared to BMS-790052 ([1]; HCV 1b replicon): 37 fold
COC(=O)N[C@H](C(=O)N1CCC[C@H]1c1ncc(-c2ccc(-c3ccc(-c4cnc([C@@H]5CCCN5C(=O)[C@@H](NC(=O)OC)C(C)C)[nH]4)s3)cc2)[nH]1)C(C)C [Compound 5d]	–	almost complete loss of anti-HCV activity	–
COC(=O)N[C@H](C(=O)N1CCC[C@H]1c1ncc(-c2ccc(-c3cccc(-c4ccc(-c5cnc([C@@H]6CCCN6C(=O)[C@@H](NC(=O)OC)C(C)C)[nH]5)cc4)c3)cc2)[nH]1)C(C)C [Compound 11c]	16- to 15,000 fold	–	–
COC(=O)N[C@H](C(=O)N1CCC[C@H]1c1ncc(-c2ccc(-c3ccc(-c4cnc([C@@H]5CCCN5C(=O)[C@@H](NC(=O)OC)C(C)C)[nH]4)cc3)cc2)[nH]1)C(C)C [BMS-790052]	–	–	median effective antiviral concentration (EC50) in vitro (HCV [2]): picomolar range; reduction in HCV RNA (HCV [3]): over 3 log10 IU/mL
COC(=O)N[C@H](C(=O)N1CCC[C@H]1c1ncc(-c2ccc(NS(=O)(=O)c3ccc(-c4cnc([C@@H]5CCCN5C(=O)[C@@H](NC(=O)OC)C(C)C)[nH]4)cc3)cc2)[nH]1)C(C)C [Compound 5c]	16- to 15,000 fold	–	–
